From patent publication US20210260142A1, “COMPOSITIONS BASED ON DIETARY FIBERS AND ESSENTIAL OILS” (Ralco Nutrition, Inc., priority 2020, published 2021) come the findings set out here.

One test relates to Eimeria acervulina. Nature of the test: Anticoccidial efficacy battery-cage study, E. acervulina lesions and oocysts.
The subject of the next test is Eimeria maxima. Nature of the test: Anticoccidial efficacy battery-cage study, E. maxima lesions and oocysts.
Another test has as its system Eimeria tenella. Nature of the test: Anticoccidial efficacy battery-cage study, E. tenella lesions and oocysts.
Test [1] in a line: 3-Oil screening trial, 35 days, cocci stress. It counts as in vivo, Cobb 500 cockerels. The note with it: product in feed. The text has this: 640 1-day-old Cobb 500 cockerels were wing banded, weighed and randomly assigned to pens on the day of delivery. Each pen was 3 feet wide by 2 feet long by 2 feet tall holding 10 birds each; density was 0.6 sq. ft. per bird. The pens were contained within two battery cages in a single barn, each with battery cage having 4 levels and 8 pens per level for a total of 32 pens per battery. The experimental period was 35 days divided into three (3) feeding stages, starter, grower and finisher. Bird weight, average daily gain (ADG), average daily feed intake (ADFI), feed to gain (FG) and Coccidiosis oocyte counts were determined at each period. This study was performed with a large number of treatments in order to screen a number of possible treatments for further future investigations. […]

[2] abbreviates: Day 20, Johnson and Reid 1970 scoring, five birds per cage.

For `CC[C@@H](C(=O)[C@@H](C)[C@@H](O)[C@H](C)[C@@H]1O[C@@H]([C@@H](CC)C(=O)O)CC[C@@H]1C)[C@H]1O[C@]2(C=C[C@@H](O)[C@]3(CC[C@@](C)([C@H]4CC[C@](O)(CC)[C@H](C)O4)O3)O2)[C@H](C)C[C@@H]1C` [Salinomycin], the “Lesion Scores Eimeria acervulina” value in the test with Eimeria acervulina (setting [2]) was determined as 0.8 days. The “Oocysts/Gram Eimeria acervulina” value with Eimeria acervulina (feces Day 19 to Day 20) was 18403cd Oocysts/Gram. For the same compound, the “Lesion Scores Eimeria maxima” value in the test with Eimeria maxima (setting [2]) amounted to 0.7 days. Moreover, in the test with Eimeria maxima (feces Day 19 to Day 20), the “Oocysts/Gram Eimeria maxima” value stood at 212bc Oocysts/Gram. Besides, the “Lesion Scores Eimeria tenella” value in the test on Eimeria tenella (setting [2]) came to 0.9b. The “Oocysts/Gram Eimeria tenella” value in the test with Eimeria tenella (feces Day 19 to Day 20) turned out to be 1843bc Oocysts/Gram.
For `O=CC=Cc1ccccc1` [cinnamaldehyde], the “Average bird weights at thirty-five (35) days” value in test [1] is recorded as 2180.2 grams.
